Columns and labels:
Glucagon receptor [1] = biological target: T1, Glucagon receptor (Homo sapiens, UniProt P47871); test: Antagonist activity against glucagon receptor; […]; format: functional
[2] = biological target: Mitogen-activated protein kinase 14 (Homo sapiens, UniProt Q16539); test: Inhibitory activity against Mitogen-activated protein kinase 14, p38-alpha; No activity
Glucagon receptor [3] = biological target: T1, Glucagon receptor; test: Antagonist activity against glucagon receptor; format: functional

T1 sequence (P47871 whole entry): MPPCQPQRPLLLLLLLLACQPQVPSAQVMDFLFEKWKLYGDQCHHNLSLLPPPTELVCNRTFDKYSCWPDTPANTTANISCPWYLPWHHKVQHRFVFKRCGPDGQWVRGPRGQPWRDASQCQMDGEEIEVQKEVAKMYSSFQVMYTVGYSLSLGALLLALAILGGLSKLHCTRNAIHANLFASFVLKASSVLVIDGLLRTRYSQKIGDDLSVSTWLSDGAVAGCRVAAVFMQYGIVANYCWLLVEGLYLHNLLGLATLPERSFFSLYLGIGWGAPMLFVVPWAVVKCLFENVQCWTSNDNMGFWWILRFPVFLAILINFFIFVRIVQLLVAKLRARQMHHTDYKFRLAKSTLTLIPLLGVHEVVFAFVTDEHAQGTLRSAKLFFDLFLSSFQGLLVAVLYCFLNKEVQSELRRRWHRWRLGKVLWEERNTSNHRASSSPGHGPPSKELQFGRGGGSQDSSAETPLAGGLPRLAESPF
Sequence of Mitogen-activated protein kinase 14 (Q16539 whole entry): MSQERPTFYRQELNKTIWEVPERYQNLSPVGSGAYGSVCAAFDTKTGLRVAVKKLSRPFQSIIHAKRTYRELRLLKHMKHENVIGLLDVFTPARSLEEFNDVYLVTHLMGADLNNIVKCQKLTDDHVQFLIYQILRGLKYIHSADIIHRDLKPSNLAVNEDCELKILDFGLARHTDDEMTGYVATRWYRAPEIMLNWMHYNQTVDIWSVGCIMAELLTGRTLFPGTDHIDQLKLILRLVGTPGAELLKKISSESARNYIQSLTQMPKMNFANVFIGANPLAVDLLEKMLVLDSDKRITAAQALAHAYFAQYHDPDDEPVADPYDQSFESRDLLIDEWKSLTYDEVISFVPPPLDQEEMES

| IC50 (Glucagon receptor [1]) | IC50 [2] | IC50 (Glucagon receptor [3]) [nM] | Compound |
| --- | --- | --- | --- |
| Not Active | – | – | O=C(O)c1ccc(-c2cc(-c3ccc(F)cc3)c(-c3ccncc3)[nH]2)cc1 |
| – | Not Active | 32 | CC(C)c1cc(-c2ccc(Cl)cc2)[nH]c1-c1ccncc1 |

From ChEMBL document CHEMBL1140378, “Fast small molecule similarity searching with multiple alignment profiles of molecules represented in one-dimension” (J Med Chem, 2005)
